Data from US5366726A (priority 1992, dated 1994).
“Also recorded” adds a separate entry of the source. Read-outs that look alike come from different tables or passages of the source.

Experiments:
[1] = human, in vivo
[2] = test system: Pneumocystis carinii; conditions: cited from earlier work; for Vital Capacity: percent predicted
[3] = parameters: species or system human; conditions: in vivo
From the text: Five patients who developed PCP within 28 days were not evaluated. One hundred (66%) of the patients were concurrently receiving AZT, and 42 (28%) had experienced one prior episode of PCP.

[4] = human, in vivo; remark: listed apart in the source
[5] = parenteral pentamidine, TMP-SMX; cited from earlier work
[6] = Example 2: aerosol particle size, Mercer cascade impactor; format: physicochemical
From the text: A compressed oxygen (5-7 L/min at 345 kPa, 50 psi) powered nebulizer produces the aerosol and one-way valves provide for entrainment of room air in patients whose minute ventilation is high, act as a baffle to decrease particle size, and direct expired air to a filter which removes the remaining particles of drug thereby preventing environmental contamination.
Particles were sized with a 7 stage Mercer cascade impactor (Intox Products, Albuquerque, N. Mex.). The gas supply was 6 L/min, the sample stream was not dried, and the impactor flow rates were 0.5 L/min. […] Results from the average of three determinations at each location were expressed as mass median aerodynamic diameter±geometric standard deviation (MMAD±GSD). Raabe, J Aerosol Sci (1971) 2:289-303.

[7] = parameters: species or system human; conditions: in vivo; remark: listed apart in the source
From the text: (§1) Within 30 days of initiation of prophylaxis, ten patients were omitted due to treatment (9) or relapse (1). Of the 93 patients, 48 had had at least one previous episode of PCP. Two-thirds of the patients were taking AZT at the onset and throughout the duration of the post-exposure prophylaxis. The median and maximum duration of treatment at the time of analysis was 3.1 and 5.2 months.

[8] = test system: Pneumocystis carinii; assay: Example 1: treatment of P. carinii pneumonia, inhaled vs intravenous pentamidine; format: in vivo, human
[9] = Respirgard or UltraVent, any dose or duration
[10] = Example 1: toxicity of inhaled vs intravenous pentamidine in patients; conditions: for major toxicity: neutropenia
[11] = test system: Pneumocystis carinii; assay: Example 5: prevention of P. carinii pneumonia, 300 mg once per month; format: in vivo, human; conditions: single prior episode; vs 10 based on 132 historical controls, p<0.01
From the text: as §1

Q: With `N=C(N)c1ccc(OCCCCCOc2ccc(C(=N)N)cc2)cc1` [pentamidine, p,p'-(pentamethylenedioxy)dibenzamidine] as the molecule, how does the “airway mucosal damage at repeat bronchoscopy” value [1] read?
A: has not revealed evidence of airway mucosal damage

Q: What about the hypotension or dysglycemia [1] of the same molecule?
A: no episodes of hypotension or dysglycemia

Q: What about the “mild inhalation-associated cough, patients” value [1] of the same molecule?
A: Eight of thirteen

Q: What about the “mucosal damage at repeat bronchoscopy” value [1] of the same molecule?
A: evidence of mucosal damage has not been observed

Q: And the “pentamidine-related reactions in some patients” value [1]?
A: cough, bronchospasm, or temperature elevation

Q: And the “reversible bronchospasm, patients” value [1]?
A: five

Q: What about the “signs or symptoms of bronchitis or bronchospasm between inhalations” value [1] of the same molecule?
A: not present

Q: What about the PaO2 ([2]; post therapy, TMP-DPS only 8 patients tested) of the same molecule?
A: 87.2 torr

Q: And the DLCO ([2]; post therapy)?
A: 62

Q: What about the “Vital Capacity” value ([2]; post therapy) of the same molecule?
A: 80

Q: What about the DLCO ([2]; pre therapy) of the same molecule?
A: 59.0

Q: What about the PaO2 ([2]; pre therapy) of the same molecule?
A: 69.3 torr

Q: And the “Vital Capacity” value ([2]; pre therapy)?
A: 70

Q: What about the “prophylaxis discontinued due to bronchospasm, patients” value [3] of the same molecule?
A: one

Q: What about the “only frequent adverse effect observed clinically” value [4] of the same molecule?
A: transient airway irritation

Q: And the “rate of severe reactions” value [5]?
A: 50%

Q: And the “mass of particles larger than 4 μm” value ([6]; at mouth-piece)?
A: less than 5%

Q: And the “particle size MMAD” value ([6]; at mouth-piece (point B), ± GSD 1.88)?
A: 1.42±1.88 μm

Q: And the “mass of particles larger than 4 μm” value ([6]; distal to nebulizer)?
A: greater than 20%

Q: What about the major pentamidine-related toxicity [7] of the same molecule?
A: No major pentamidine-related toxicity

Q: What about the “successfully treated patients with relapses” value ([8]; inhaled) of the same molecule?
A: three of ten

Q: What about the Outcome of therapy ([8]; inhaled, 4 mg/Kg, UltraVent, single patients) of the same molecule?
A: success; also recorded: failed

Q: What about the “patients readmitted and treated for P. carinii pneumonia after discharge” value ([8]; inhaled, at one, three and two months) of the same molecule?
A: Three

Q: And the “Time to discharge, all patients in group” value ([8]; inhaled, based on 9 successful patients)?
A: 15 ± 1 days

Q: And the “patients with satisfactory outcome” value ([8]; inhaled, of the remaining ten evaluated patients)?
A: nine

Q: And the “recurrence of PCP at follow-up” value ([8]; inhaled, remaining six, one to nine months following discharge)?
A: no recurrence of PCP

Q: And the Time to discharge ([8]; inhaled, single patients)?
A: 9 days

Q: And the “patients with satisfactory outcome” value ([8]; intravenous)?
A: Eight of nine

Q: And the Outcome of therapy ([8]; intravenous, 3 mg/Kg, single patients)?
A: success; also recorded: failed

Q: What about the “Time to discharge, all patients in group” value ([8]; intravenous, based on 8 successful patients) of the same molecule?
A: 14 ± 2 days

Q: What about the relapses at follow-up ([8]; intravenous, four patients, five to six months) of the same molecule?
A: no reported relapses

Q: And the “dose remaining in the nebulizer after inhalation” value [9]?
A: approximately one third

Q: What about the “minor toxicity (rash), patients” value ([10]; inhaled) of the same molecule?
A: One

Q: And the major toxicity ([10]; inhaled, patients also received AZT)?
A: 20%

Q: And the “minor toxicity (elevated serum creatinine, depressed leukocyte count), patients” value ([10]; intravenous)?
A: four

Q: What about the “required a change of therapy due to toxicity” value ([10]; intravenous) of the same molecule?
A: 11%

Q: And the major toxicity ([10]; intravenous, hepatotoxicity)?
A: 22%

Q: What about the “number of observed cases” value [11] of the same molecule?
A: 3 cases
